Test results as given in patent US8399465B2, “Compounds with two fused bicyclic heteroaryl moieties as modulators of leukotriene A4 hydrolase” (Janssen Pharmaceutica NV, priority 2009, dated 2013).
pIC50: −log10 of the molar value. Where a name gives a salt, the structure may show the parent alone.

Experiments:
[1] = target: T1, recombinant human LTA4 hydrolase (rhLTA4H) (Homo sapiens, UniProt P09960); experiment: Recombinant human LTA4 hydrolase assay for LTA4 hydrolase inhibitor activity; assay type: biochemical; settings: rhLTA4H, LTB4 by immunoassay; single determination or average of two or more; mark after value = form tested: ′ free base, ″ hydrochloride, ^ formate; read-out: IC50
T1 construct: made in house; host or cells: Spodoptera frugiperda (Sf-9) cells, baculovirus (pFastBac1)
T1 sequence (P09960 1-611): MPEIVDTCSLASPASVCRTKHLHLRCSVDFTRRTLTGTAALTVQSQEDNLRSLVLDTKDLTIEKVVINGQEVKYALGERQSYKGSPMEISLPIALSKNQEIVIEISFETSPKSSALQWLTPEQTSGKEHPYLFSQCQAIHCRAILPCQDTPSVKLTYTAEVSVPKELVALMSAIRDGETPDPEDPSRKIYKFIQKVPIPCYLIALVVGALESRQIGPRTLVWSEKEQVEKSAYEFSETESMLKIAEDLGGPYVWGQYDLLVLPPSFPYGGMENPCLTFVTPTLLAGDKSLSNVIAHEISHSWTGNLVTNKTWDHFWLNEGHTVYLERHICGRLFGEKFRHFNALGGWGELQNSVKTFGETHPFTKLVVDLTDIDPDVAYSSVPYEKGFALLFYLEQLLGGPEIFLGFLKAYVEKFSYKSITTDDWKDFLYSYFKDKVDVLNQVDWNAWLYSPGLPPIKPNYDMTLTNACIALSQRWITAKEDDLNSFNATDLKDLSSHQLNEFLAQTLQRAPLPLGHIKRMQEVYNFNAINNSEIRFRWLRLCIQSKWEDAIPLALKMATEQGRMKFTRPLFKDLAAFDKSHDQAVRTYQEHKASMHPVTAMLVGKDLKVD
How it was run: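 Baculovirus/Sf-9-expressed human LTA4H (10 ng) was preincubated 10 min at rt with compound in assay buffer (10% DMSO in compound dilution), then reacted 30 min at rt with LTA4 free acid made from its methyl ester. LTB4 produced was measured by ELISA after dilution; IC50 from non-linear regression, single or averaged determinations.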

[2] = system: LTB4 production in murine blood (LTA4H); experiment: LTB4 production by calcium ionophore-stimulated murine blood for LTA4H inhibitor activity; assay type: cell-based, CD-1 mice; settings: Mus musculus; murine blood diluted 1 in 15, A23187 stimulated; single determination or average; mark after value = form tested: ′ free base, ″ hydrochloride, ^ formate; read-out: IC50
Method: Assay 2: LTB4 Production by Calcium Ionophore-Stimulated Murine Blood for LTA4H Inhibitor Activity
CD-1 mice were sacrificed, and blood was collected in heparin-containing syringes by cardiac puncture. […] After the microtiter plate contents were incubated for 15 min at 37° C. in a humidified incubator, calcium ionophore A23187 (Sigma Chemical Co., St. Louis, Mo.) was added to each sample well (final concentration=7 μg/mL). The incubation was continued under the same conditions for an additional 30 min to allow LTB4 formation. The reaction was terminated by centrifugation (833×g, 10 min at 4° C.), and supernatants were analyzed for LTB4 by a commercially available enzyme-linked immunoassay (Cayman Chemical Co.) according to the manufacturer's instructions. Positive controls, under essentially identical conditions but without addition of an inhibitor compound, and negative unstimulated controls, containing all assay components except calcium ionophore, were routinely run in each experiment. […] The values presented here are the result of a single determination or an average of two or more determinations.

SMILES	pIC50 [1]	pIC50 [2]
c1ccc2sc(Oc3ccc4c(CN5CCCC5)c[nH]c4c3)nc2c1 [Example 1, 2-(3-Pyrrolidin-1-ylmethyl-1H-indol-6-yloxy)-benzothiazole]	7.92	7.17
c1ccc2sc(Oc3ccc4c(CN5CCCCC5)c[nH]c4c3)nc2c1 [Example 2, 2-(3-Piperidin-1-ylmethyl-1H-indol-6-yloxy)-benzothiazole]	7.72	7.11
c1ccc2sc(Oc3ccc4c(CN5CCOCC5)c[nH]c4c3)nc2c1 [Example 3, 2-(3-Morpholin-4-ylmethyl-1H-indol-6-yloxy)-benzothiazole]	7.80	6.52
CS(=O)(=O)C1CCN(Cc2c[nH]c3cc(Oc4nc5ccccc5s4)ccc23)CC1 [Example 4, 2-[3-(4-Methanesulfonyl-piperidin-1-ylmethyl)-1H-indol-6-yloxy]-benzothiazole]	7.64	6.72
CN(Cc1ccccc1)Cc1c[nH]c2cc(Oc3nc4ccccc4s3)ccc12 [Example 5, [6-(Benzothiazol-2-yloxy)-1H-indol-3-ylmethyl]-benzyl-methyl-amine]	7.27	6.05
c1ccc2c(c1)CN(Cc1c[nH]c3cc(Oc4nc5ccccc5s4)ccc13)C2 [Example 6, 2-[3-(1,3-Dihydro-isoindol-2-ylmethyl)-1H-indol-6-yloxy]-benzothiazole]	7.77	6.01
c1ccc2c(c1)CCN(Cc1c[nH]c3cc(Oc4nc5ccccc5s4)ccc13)C2 [Example 7, 2-[6-(Benzothiazol-2-yloxy)-1H-indol-3-ylmethyl]-1,2,3,4-tetrahydro-isoquinoline]	7.38	6.32
c1ccc(C2CCN(Cc3c[nH]c4cc(Oc5nc6ccccc6s5)ccc34)CC2)cc1 [Example 8, 2-[3-(4-Phenyl-piperidin-1-ylmethyl)-1H-indol-6-yloxy]-benzothiazole]	7.96	5.94
c1ccc2sc(Oc3ccc4c(CN5C[C@@H]6C[C@H]5CO6)c[nH]c4c3)nc2c1 [Example 12, (1S,4S)-2-[3-(2-Oxa-5-aza-bicyclo[2.2.1]hept-5-ylmethyl)-1H-indol-6-yloxy]-benzothiazole]	7.89	6.60
CC(=O)N[C@H]1C[C@H]2CC[C@@H](C1)N2Cc1c[nH]c2cc(Oc3nc4ccccc4s3)ccc12 [Example 13, meso-endo-N-{8-[6-(Benzothiazol-2-yloxy)-1H-indol-3-ylmethyl]-8-aza-bicyclo[3.2.1]oct-3-yl}-acetamide]	8.70	7.00
CC(=O)N[C@H]1C[C@H]2CC[C@@H](C1)N2Cc1c[nH]c2cc(Oc3nc4c(F)cccc4s3)ccc12 [Example 14, meso-endo-N-{8-[6-(4-Fluoro-benzothiazol-2-yloxy)-1H-indol-3-ylmethyl]-8-aza-bicyclo[3.2.1]oct-3-yl}-acetamide]	–	7.18
c1ccc2oc(Oc3ccc4c(CN5CCCCC5)c[nH]c4c3)nc2c1 [Example 15, 2-(3-Piperidin-1-ylmethyl-1H-indol-6-yloxy)-benzooxazole]	7.89	6.82
c1cnc2nc(Oc3ccc4c(CN5CCCCC5)c[nH]c4c3)sc2c1 [Example 16, 2-(3-Piperidin-1-ylmethyl-1H-indol-6-yloxy)-thiazolo[4,5-b]pyridine]	8.52	7.77
NC(=O)C1CCN(Cc2c[nH]c3cc(Oc4nc5ncccc5s4)ccc23)CC1 [Example 17, 1-[6-(Thiazolo[4,5-b]pyridin-2-yloxy)-1H-indol-3-ylmethyl]-piperidine-4-carboxylic acid amide]	8.70	6.93
CC(=O)N[C@H]1C[C@H]2CC[C@@H](C1)N2Cc1c[nH]c2cc(Oc3nc4ncccc4s3)ccc12 [Example 18, meso-endo-N-{8-[6-(Thiazolo[4,5-b]pyridin-2-yloxy)-1H-indol-3-ylmethyl]-8-aza-bicyclo[3.2.1]oct-3-yl}-acetamide]	9.00	6.52
CC(=O)N1C[C@@H]2C[C@H]1CN2Cc1c[nH]c2cc(Oc3nc4ncccc4s3)ccc12 [Example 19, (1S,4S)-1-{5-[6-(Thiazolo[4,5-b]pyridin-2-yloxy)-1H-indol-3-ylmethyl]-2,5-diaza-bicyclo[2.2.1]hept-2-yl}-ethanone]	8.70	6.98
O=C1CCCN1C1CCN(Cc2c[nH]c3cc(Oc4nc5ncccc5s4)ccc23)CC1 [Example 20, 1-{1-[6-(Thiazolo[4,5-b]pyridin-2-yloxy)-1H-indol-3-ylmethyl]-piperidin-4-yl}-pyrrolidin-2-one]	8.70	7.09
NC(=O)C1CCN(Cc2c[nH]c3cc(Oc4nc5ccccc5s4)ccc23)CC1 [Example 21, 1-[6-(Benzothiazol-2-yloxy)-1H-indol-3-ylmethyl]-piperidine-4-carboxylic acid amide]	8.30	6.79
O=C(c1ccccc1)C1CCN(C(=O)c2coc3cc(Oc4nc5ncccc5s4)ccc23)CC1 [Example 387, (4-Benzoyl-piperidin-1-yl)-[6-(thiazolo[4,5-b]pyridin-2-yloxy)-benzofuran-3-yl]-methanone]	6.82	–
CN(C)CCCN(C)C(=O)c1coc2cc(Oc3nc4ncccc4s3)ccc12 [Example 388, 6-(Thiazolo[4,5-b]pyridin-2-yloxy)-benzofuran-3-carboxylic acid (3-dimethylamino-propyl)-methyl-amide]	6.82	–
COC(=O)c1ccc(C(=O)NCc2coc3cc(Oc4nc5ncccc5s4)ccc23)cc1 [Example 393, N-[6-(Thiazolo[4,5-b]pyridin-2-yloxy)-benzofuran-3-ylmethyl]-terephthalamic acid methyl ester]	7.00	–
O=C(Cc1ccc(Cl)cc1)NCc1coc2cc(Oc3nc4ncccc4s3)ccc12 [Example 394, 2-(4-Chloro-phenyl)-N-[6-(thiazolo[4,5-b]pyridin-2-yloxy)-benzofuran-3-ylmethyl]-acetamide]	7.07	–
CC(=O)NCc1coc2cc(Oc3nc4ncccc4s3)ccc12 [Example 395, N-[6-(Thiazolo[4,5-b]pyridin-2-yloxy)-benzofuran-3-ylmethyl]-acetamide]	7.07	–
O=C(O)c1ccc(C(=O)NCc2coc3cc(Oc4nc5ncccc5s4)ccc23)cc1 [Example 396, N-[6-(Thiazolo[4,5-b]pyridin-2-yloxy)-benzofuran-3-ylmethyl]-terephthalamic acid]	7.28	–
O=C1Cc2ccc(C(F)(F)F)cc2N1Cc1coc2cc(Oc3nc4ncccc4s3)ccc12 [Example 398, 1-[6-(Thiazolo[4,5-b]pyridin-2-yloxy)-benzofuran-3-ylmethyl]-6-trifluoromethyl-1,3-dihydro-indol-2-one]	6.33	–
O=C1Cc2cc(C(F)(F)F)ccc2N1Cc1coc2cc(Oc3nc4ncccc4s3)ccc12 [Example 400, 1-[6-(Thiazolo[4,5-b]pyridin-2-yloxy)-benzofuran-3-ylmethyl]-5-trifluoromethyl-1,3-dihydro-indol-2-one]	5.95	–
O=C1Cc2cc(Cl)ccc2N1Cc1coc2cc(Oc3nc4ncccc4s3)ccc12 [Example 401, 5-Chloro-1-[6-(thiazolo[4,5-b]pyridin-2-yloxy)-benzofuran-3-ylmethyl]-1,3-dihydro-indol-2-one]	5.99	–
CC(=O)N(Cc1coc2cc(Oc3nc4ncccc4s3)ccc12)[C@H]1CN2CCC1CC2 [Example 404, (R)—N-(1-Aza-bicyclo[2.2.2]oct-3-yl)-N-[6-(thiazolo[4,5-b]pyridin-2-yloxy)-benzofuran-3-ylmethyl]-acetamide formate]	8.70	–
c1ccc2sc(Oc3ccc4c(CN5CCCCC5)coc4c3)nc2c1 [Example 405, 2-(3-Piperidin-1-ylmethyl-benzofuran-6-yloxy)-benzothiazole]	7.11	–
c1ccc2sc(Oc3ccc4cc(CN5CCCCC5)oc4c3)nc2c1 [Example 406, 2-(2-Piperidin-1-ylmethyl-benzofuran-6-yloxy)-benzothiazole]	6.31	–
